Reference: patent publication US20260015581A1, “METHODS FOR THE PRODUCTION OF RETINAL CELLS” (MIAMI UNIVERSITY, priority 2018, published 2026)

System: PGP1-derived RPE
Assay: Small molecule screen for reprogramming of PGP1-derived RPE to neural retina (induction of fluorescent reporter expression)
Conditions: 40 μM; D0, D5 and D10 of treatment (FIG. 21)
Protocol: A second small molecule screen tested 180 compounds at a concentration of 40 μM designed to target epigenetic pathways (from the Selleck Chemicals Epigenetic Compounds Library L1900).

| Molecule | subsequent induction of eGFP expression (retinal ganglion cell reporter) in PGP1-derived RPE |
| --- | --- |
| BI 847325 | subsequently induces the expression of eGFP |

Same assay, conditions: Selleck Chemicals Epigenetic Compounds Library L1900; 40 μM

| Molecule | induction of Cerulean expression in PGP1-derived RPE |
| --- | --- |
| O=C(O)c1ccc(O)c2ncccc12 [Carboxy-8-hydroxyquinoline] | showed evidence of inducing Cerulean expression |
| C1=C/COCc2cc(ccc2OCCN2CCCC2)Nc2nccc(n2)-c2cccc(c2)COC/1 [Pacritinib] | showed evidence of inducing Cerulean expression |
| CN1CCN(c2ccc(-c3cccc(CN4CCOCC4)c3)cc2NC(=O)c2c[nH]c(=O)cc2C(F)(F)F)CC1 [OICR-9429] | showed evidence of inducing Cerulean expression |
| O=C(Nc1ccccc1-c1cn2c(CN3CC[C@@H](O)C3)csc2n1)c1ccc2ccccc2c1 [SSRT2183] | showed evidence of inducing Cerulean expression |
| CCn1cc(-c2cccc(C(F)(F)F)c2)c2sc(C(=N)NC3CCS(=O)(=O)CC3)cc2c1=O [I-BRD9] | showed evidence of inducing Cerulean expression |
| BI 847325 | showed evidence of inducing Cerulean expression |
| COc1cc2c(Nc3ccc(NC(=O)c4ccccc4)cc3)ncnc2cc1OCCCN1CCOCC1 [ZM 447439] | showed evidence of inducing Cerulean expression |
| Cc1c(CN2CCC(Nc3ncnc4sc(CC(F)(F)F)cc34)CC2)ccc2[nH]c(C#N)cc12 [MI 463] | showed evidence of inducing Cerulean expression |
| CN(C)CCCNC(=O)c1ccc(-c2cc(O)c3ncccc3c2)cc1 [ML324] | showed evidence of inducing Cerulean expression |

Same assay, conditions: first library of 127 compounds; 5-15 days of treatment; at least 9 different replicates; U0126 39 μM, SC 79 110 μM, KU 0063794 3 μM

| Molecule | induction of Cerulean expression (blue fluorescent cells) in PGP1-derived RPE |
| --- | --- |
| N#CC(=C(/N)Sc1ccccc1N)/C(C#N)=C(\N)Sc1ccccc1N [U0126] | produced blue fluorescent cells |
| CCOC(=O)C1=C(N)Oc2ccc(Cl)cc2C1C(C#N)C(=O)OCC (stereo not shown) [SC 79] | produced blue fluorescent cells |
| COc1ccc(-c2ccc3c(N4CCOCC4)nc(N4C[C@@H](C)O[C@@H](C)C4)nc3n2)cc1CO [KU 0063794] | produced blue fluorescent cells |
